In patent publication US20250144067A1, “PERSONALIZED STARVATION THERAPY FOR CANCER” (Faeth Therapeutics, Inc., priority 2021, published 2025):
Structures can show the parent of a compound that is named as a salt.

system: NCI-H292 lung cancer cells; test: FDA drug screening, complete media vs cholesterol-free media without statin (TABLE 1); assay type: cell-based, human; conditions: not given

Structure (SMILES)	Cholesterol-free	Complete	Difference
Cl.Cl.NCCc1c[nH]cn1 [Histamine (dihydrochloride)]	1.708	1.081	−0.63
C[C@]12CCC(=O)C=C1CC[C@@H]1[C@@H]2[C@@H](O)C[C@@]2(C)[C@H]1CC[C@]2(O)C(=O)COC(=O)CCC1CCCC1 [Hydrocortisone cypionate]	1.099	0.6914	−0.41

same assay, conditions: Complete minus Cholesterol-free; >0 enhanced anti-cancer activity, about 0 neutral, <0 antagonist

Structure (SMILES)	Difference
COc1ccccc1O [Guaiacol]	−0.02
Cc1ccc(C(C)C)cc2c(C)ccc1-2 [Guaiazulene]	−0.21
CC(N)CCCC(C)(C)O (stereo not drawn) [Heptaminol (hydrochloride)]	−0.27
CCCCCCOC(=O)CCC(=O)CN [Hexaminolevulinate (hydrochloride)]	0.00
CCCCCCc1ccc(O)cc1O [Hexylresorcinol]	0.00
NCCc1c[nH]cn1.O=P(O)(O)O [Histamine (phosphate)]	−0.23
NCCc1c[nH]cn1 [Histamine]	0.05
COC(=O)C[C@](O)(CCCC(C)(C)O)C(=O)O[C@@H]1C(OC)=C[C@]23CCCN2CCc2cc4c(cc2[C@H]13)OCO4 [Homoharringtonine]	−0.02
CCCC(=O)O[C@]1(C(=O)CO)CC[C@H]2[C@@H]3CCC4=CC(=O)CC[C@]4(C)[C@H]3[C@@H](O)C[C@@]21C [Hydrocortisone 17-butyrate]	−0.03
CC(=O)OCC(=O)[C@@]1(O)CC[C@H]2[C@@H]3CCC4=CC(=O)CC[C@]4(C)[C@H]3[C@@H](O)C[C@@]21C [Hydrocortisone acetate]	−0.20

same assay, conditions: Complete minus Cholesterol-free; […]

Structure (SMILES)	Difference
COc1ccccc1OC(=O)c1ccccc1OC(C)=O [Guacetisal]	−0.09
COC(=O)C[C@](O)(CCC(C)(C)O)C(=O)O[C@@H]1C(OC)=C[C@]23CCCN2CCc2cc4c(cc2[C@H]13)OCO4 [Harringtonine]	−0.01

same assay, conditions: NCI-H292 cells, FDA drug library screen, cholesterol-free media without statin

Structure (SMILES)	Cholesterol-free
COc1ccccc1OC(=O)c1ccccc1OC(C)=O [Guacetisal]	0.837

same assay, conditions: NCI-H292 cells, FDA drug library screen, complete media

Structure (SMILES)	Complete
COc1ccccc1OC(=O)c1ccccc1OC(C)=O [Guacetisal]	0.7434

same assay, conditions: NCI-H292 cells, cholesterol-free media without statin

Structure (SMILES)	Cholesterol-free
Cc1ccc(C(C)C)cc2c(C)ccc1-2 [Guaiazulene]	1.231
CC(N)CCCC(C)(C)O (stereo not drawn) [Heptaminol (hydrochloride)]	0.8584
NCCc1c[nH]cn1.O=P(O)(O)O [Histamine (phosphate)]	1.032
CC(=O)OCC(=O)[C@@]1(O)CC[C@H]2[C@@H]3CCC4=CC(=O)CC[C@]4(C)[C@H]3[C@@H](O)C[C@@]21C [Hydrocortisone acetate]	0.8261

same assay, conditions: NCI-H292 cells, cholesterol-free media without statin, FDA drug library screen

Structure (SMILES)	Cholesterol-free
COc1ccccc1O [Guaiacol]	1.281
COC(=O)C[C@](O)(CCC(C)(C)O)C(=O)O[C@@H]1C(OC)=C[C@]23CCCN2CCc2cc4c(cc2[C@H]13)OCO4 [Harringtonine]	0.0181
CCCCCCOC(=O)CCC(=O)CN [Hexaminolevulinate (hydrochloride)]	0.7384
CCCCCCc1ccc(O)cc1O [Hexylresorcinol]	1.034
NCCc1c[nH]cn1 [Histamine]	0.9318
COC(=O)C[C@](O)(CCCC(C)(C)O)C(=O)O[C@@H]1C(OC)=C[C@]23CCCN2CCc2cc4c(cc2[C@H]13)OCO4 [Homoharringtonine]	−0.02013
CCCC(=O)O[C@]1(C(=O)CO)CC[C@H]2[C@@H]3CCC4=CC(=O)CC[C@]4(C)[C@H]3[C@@H](O)C[C@@]21C [Hydrocortisone 17-butyrate]	1.162

same assay, conditions: NCI-H292 cells, complete media

Structure (SMILES)	Complete
Cc1ccc(C(C)C)cc2c(C)ccc1-2 [Guaiazulene]	1.025
CC(N)CCCC(C)(C)O (stereo not drawn) [Heptaminol (hydrochloride)]	0.5894
NCCc1c[nH]cn1.O=P(O)(O)O [Histamine (phosphate)]	0.8034
CC(=O)OCC(=O)[C@@]1(O)CC[C@H]2[C@@H]3CCC4=CC(=O)CC[C@]4(C)[C@H]3[C@@H](O)C[C@@]21C [Hydrocortisone acetate]	0.6264

same assay, conditions: NCI-H292 cells, complete media, FDA drug library screen

Structure (SMILES)	Complete
COc1ccccc1O [Guaiacol]	1.265
COC(=O)C[C@](O)(CCC(C)(C)O)C(=O)O[C@@H]1C(OC)=C[C@]23CCCN2CCc2cc4c(cc2[C@H]13)OCO4 [Harringtonine]	0.006818
CCCCCCOC(=O)CCC(=O)CN [Hexaminolevulinate (hydrochloride)]	0.7376
CCCCCCc1ccc(O)cc1O [Hexylresorcinol]	1.036
NCCc1c[nH]cn1 [Histamine]	0.9813
COC(=O)C[C@](O)(CCCC(C)(C)O)C(=O)O[C@@H]1C(OC)=C[C@]23CCCN2CCc2cc4c(cc2[C@H]13)OCO4 [Homoharringtonine]	−0.04264
CCCC(=O)O[C@]1(C(=O)CO)CC[C@H]2[C@@H]3CCC4=CC(=O)CC[C@]4(C)[C@H]3[C@@H](O)C[C@@]21C [Hydrocortisone 17-butyrate]	1.133

system: NCI-H292 lung cancer cells; test: FDA drug screening, complete media vs cholesterol-free media with simvastatin (TABLE 2); assay type: cell-based, human; conditions: not given

Structure (SMILES)	Cholesterol-free media + simvastatin (0.04 μM)	Complete Media	Difference
Cl.Cl.NCCc1c[nH]cn1 [Histamine (dihydrochloride)]	0.9209	0.9238	0.00
C[C@]12CCC(=O)C=C1CC[C@@H]1[C@@H]2[C@@H](O)C[C@@]2(C)[C@H]1CC[C@]2(O)C(=O)COC(=O)CCC1CCCC1 [Hydrocortisone cypionate]	0.7228	0.7215	0.00

same assay, conditions: NCI-H292 cells, FDA drug library screen, cholesterol-free media with simvastatin 0.04 μM

Structure (SMILES)	Cholesterol-free media + simvastatin (0.04 μM)
NCCc1c[nH]cn1 [Histamine]	1.15
CCCC(=O)O[C@]1(C(=O)CO)CC[C@H]2[C@@H]3CCC4=CC(=O)CC[C@]4(C)[C@H]3[C@@H](O)C[C@@]21C [Hydrocortisone 17-butyrate]	0.4747
CC(=O)OCC(=O)[C@@]1(O)CC[C@H]2[C@@H]3CCC4=CC(=O)CC[C@]4(C)[C@H]3[C@@H](O)C[C@@]21C [Hydrocortisone acetate]	0.7827

same assay, conditions: NCI-H292 cells, FDA drug library screen, complete media

Structure (SMILES)	Complete Media
NCCc1c[nH]cn1 [Histamine]	1.573
CCCC(=O)O[C@]1(C(=O)CO)CC[C@H]2[C@@H]3CCC4=CC(=O)CC[C@]4(C)[C@H]3[C@@H](O)C[C@@]21C [Hydrocortisone 17-butyrate]	0.6696
CC(=O)OCC(=O)[C@@]1(O)CC[C@H]2[C@@H]3CCC4=CC(=O)CC[C@]4(C)[C@H]3[C@@H](O)C[C@@]21C [Hydrocortisone acetate]	0.63

same assay, conditions: NCI-H292 cells, FDA library drug in cholesterol-free media with simvastatin 0.04 μM

Structure (SMILES)	Cholesterol-free media + simvastatin (0.04 μM)
COc1ccccc1O [Guaiacol]	2.295

same assay, conditions: NCI-H292 cells, FDA library drug in complete media

Structure (SMILES)	Complete Media
COc1ccccc1O [Guaiacol]	1.473

same assay, conditions: NCI-H292 cells, cholesterol-free media with simvastatin 0.04 μM; FDA drug library screen (TABLE 2)

Structure (SMILES)	Cholesterol-free media + simvastatin (0.04 μM)
COC(=O)C[C@](O)(CCC(C)(C)O)C(=O)O[C@@H]1C(OC)=C[C@]23CCCN2CCc2cc4c(cc2[C@H]13)OCO4 [Harringtonine]	−0.01111
NCCc1c[nH]cn1.O=P(O)(O)O [Histamine (phosphate)]	1.025
COC(=O)C[C@](O)(CCCC(C)(C)O)C(=O)O[C@@H]1C(OC)=C[C@]23CCCN2CCc2cc4c(cc2[C@H]13)OCO4 [Homoharringtonine]	0.0331

same assay, conditions: NCI-H292 cells, cholesterol-free media with simvastatin 0.04 μM; […]

Structure (SMILES)	Cholesterol-free media + simvastatin (0.04 μM)
COc1ccccc1OC(=O)c1ccccc1OC(C)=O [Guacetisal]	1.34

same assay, conditions: NCI-H292 cells, complete media; FDA drug library screen (TABLE 2)

Structure (SMILES)	Complete Media
COC(=O)C[C@](O)(CCC(C)(C)O)C(=O)O[C@@H]1C(OC)=C[C@]23CCCN2CCc2cc4c(cc2[C@H]13)OCO4 [Harringtonine]	−0.002434
NCCc1c[nH]cn1.O=P(O)(O)O [Histamine (phosphate)]	1.021
COC(=O)C[C@](O)(CCCC(C)(C)O)C(=O)O[C@@H]1C(OC)=C[C@]23CCCN2CCc2cc4c(cc2[C@H]13)OCO4 [Homoharringtonine]	0.0063

same assay, conditions: NCI-H292 cells, complete media; […]

Structure (SMILES)	Complete Media
COc1ccccc1OC(=O)c1ccccc1OC(C)=O [Guacetisal]	1.4

same assay, conditions: NCI-H292 cells, drug in cholesterol-free media with simvastatin 0.04 μM

Structure (SMILES)	Cholesterol-free media + simvastatin (0.04 μM)
Cc1ccc(C(C)C)cc2c(C)ccc1-2 [Guaiazulene]	1.916
CC(N)CCCC(C)(C)O (stereo not drawn) [Heptaminol (hydrochloride)]	1.069
CCCCCCOC(=O)CCC(=O)CN [Hexaminolevulinate (hydrochloride)]	1.074
CCCCCCc1ccc(O)cc1O [Hexylresorcinol]	1.514

same assay, conditions: NCI-H292 cells, drug in complete media

Structure (SMILES)	Complete Media
Cc1ccc(C(C)C)cc2c(C)ccc1-2 [Guaiazulene]	1.674
CC(N)CCCC(C)(C)O (stereo not drawn) [Heptaminol (hydrochloride)]	0.8484
CCCCCCOC(=O)CCC(=O)CN [Hexaminolevulinate (hydrochloride)]	0.8971
CCCCCCc1ccc(O)cc1O [Hexylresorcinol]	1.344

same assay, conditions: complete media minus cholesterol-free media + simvastatin (0.04 μM); >0 enhanced anti-cancer activity, about 0 neutral, <0 antagonist

Structure (SMILES)	Difference
NCCc1c[nH]cn1.O=P(O)(O)O [Histamine (phosphate)]	0.00
COC(=O)C[C@](O)(CCCC(C)(C)O)C(=O)O[C@@H]1C(OC)=C[C@]23CCCN2CCc2cc4c(cc2[C@H]13)OCO4 [Homoharringtonine]	−0.03

same assay, conditions: complete media minus cholesterol-free media + simvastatin (0.04 μM); […]

Structure (SMILES)	Difference
COC(=O)C[C@](O)(CCC(C)(C)O)C(=O)O[C@@H]1C(OC)=C[C@]23CCCN2CCc2cc4c(cc2[C@H]13)OCO4 [Harringtonine]	0.01

same assay, conditions: complete media minus cholesterol-free media + simvastatin; >0 enhanced anti-cancer activity, about 0 neutral, <0 antagonist

Structure (SMILES)	Difference
NCCc1c[nH]cn1 [Histamine]	0.42
CCCC(=O)O[C@]1(C(=O)CO)CC[C@H]2[C@@H]3CCC4=CC(=O)CC[C@]4(C)[C@H]3[C@@H](O)C[C@@]21C [Hydrocortisone 17-butyrate]	0.19

same assay, conditions: complete media minus cholesterol-free media + simvastatin; […]

Structure (SMILES)	Difference
COc1ccccc1OC(=O)c1ccccc1OC(C)=O [Guacetisal]	0.06

same assay, conditions: complete media vs cholesterol-free media + simvastatin (0.04 μM); >0 enhanced anti-cancer activity, about 0 neutral, <0 antagonist

Structure (SMILES)	Difference
COc1ccccc1O [Guaiacol]	−0.82
Cc1ccc(C(C)C)cc2c(C)ccc1-2 [Guaiazulene]	−0.24
CC(N)CCCC(C)(C)O (stereo not drawn) [Heptaminol (hydrochloride)]	−0.22
CCCCCCOC(=O)CCC(=O)CN [Hexaminolevulinate (hydrochloride)]	−0.18
CCCCCCc1ccc(O)cc1O [Hexylresorcinol]	−0.17
CC(=O)OCC(=O)[C@@]1(O)CC[C@H]2[C@@H]3CCC4=CC(=O)CC[C@]4(C)[C@H]3[C@@H](O)C[C@@]21C [Hydrocortisone acetate]	−0.15
